Experimental data as given in patent US20100150938A1, “METHODS AND COMPOSITIONS FOR REDUCING INFLAMMATION AND TREATING INFLAMMATORY DISORDERS” (UNIVERSITY OF MASSACHUSETTS, priority 2008, published 2010).
Entries after “also recorded” stand apart in the source; their conditions may differ. Each block holds one compound with its values, some of them ahead of it. Non-standard residues stand in square brackets, D forms with d. Residues, ends and D or L forms follow the SMILES beside them. *: point of attachment. Sta = CC(C)C[C@H](N)[C@@H](O)CC(=O)O; Isovaleryl = CC(C)CC(=O)*; Cbz = O=C(OCc1ccccc1)*; CH2F = FC*

Columns and labels:
mouse macrophages = experiment: IL-1β release from LPS-primed mouse macrophages (bone marrow-derived, B6-MCLs), ELISA; format: cell-based
Procedure: (§1) Bone marrow derived macrophages were generated as described (Severa, M et al. Journal of Biological Chemistry 281:26188-26195 (2006)). Human PBMCs were isolated by from whole blood of healthy volunteers by density gradient centrifugation. Lysis of red blood cells was performed using red blood cell lysis buffer (Sigma). Experiments in PBMCs and macrophages were carried out at a cell density of 2×10^6 cells/ml. All primary cells and cell lines except THP-1 cells were cultured in DMEM supplemented with L-glutamine, ciprofloxacin (Cellgro, Manassas, Va.) and 10% fetal calf serum (Hyclone, Logan, Utah). THP-1 cells were cultured in RPMI supplemented with 10% fetal calf serum (Hyclone), L-glutamine, sodium pyruvate (Cellgro), and ciprofloxacin. One day prior to stimulation, THP-1 cells were differentiated using 0.5 μM PMA for three hours, washed three times and plated for stimulation. All experiments that were performed for Western blot analysis were carried out in serum free DMEM medium. ATP stimulations were carried out at 5 mM one hour prior to harvesting supernatants.
Immortalized macrophage cell lines were generated using the previously described J2 recombinant retrovirus (carrying v-myc and v-raf/mil oncogenes) (Roberson, S. M. & Walker, W. S. Cellular immunology 116:341-351 (1988)). Briefly, primary bone marrow cells were incubated in L929 conditioned medium for 3-4 days to induce macrophage differentiation. Subsequently, cells were infected with J2 recombinant retrovirus. Cells were maintained in culture for 3-6 months slowly weaning off the percentage of L929 supernatant until cells were growing in the absence of conditioned medium.
Macrophage phenotype was verified by surface marker expression for CD11b and F480 as well as a range of functional parameters, including responsiveness to TLR ligands and bacterial uptake. Macrophage cell lines from wild-type (C57BL6), NALP3- and ASC-deficient mice were generated and are referred to as B6-MCLs, NALP3 -MCLs and ASC-MCLs.
Cell culture supernatants were assayed for IL-1β using ELISA kits from BD Biosciences (Franklin Lakes, NJ) according to the manufacturer's instructions. To measure intracellular IL-1β, cells were washed and subjected to three freeze thaw cycles in assay diluent.
(§2) Stimulations were carried out in serum free DMEM medium. Microglial cells and macrophages were primed with 100 U/ml IFNγ (Griess assay, TNF ELISA, real-time quantitative PCR) or 100 ng/ml ultrapure LPS (IL-1β ELISA, FLICA, ASC-CFP microglia cell line assay, Western blot) 1-3 h prior to stimulation with Aβ, revAβ, zymosan, ATP or transfection with dAdT.

[1] = system: lysosomes of mouse macrophages; experiment: Lysosomal acidification, proteolysis and rupture in mouse macrophages (LysoSensor Green, DQ ovalbumin, acridine orange, dextran); format: cell-based
Procedure: For evaluation of lysosomal rupture, cells were incubated with 1 μg/m1 acridine orange for 15 min, washed three times and subsequently stimulated as indicated. Lysosomal rupture can be assessed by loss of emission at 600-650 nm using flow cytometry. All flow cytometry experiments were performed on an LSRII cytometer (BD Biosciences). Data were acquired by DIVA (BD Biosciences) and analyzed by FlowJo software (Tree Star Inc., Ashland, Oreg.).
Confocal reflection microscopy was combined with fluorescence microscopy on a Leica SP2 AOBS confocal laser scanning microscope. Reflection was captured by placing the detector channel directly over the wavelength of the selected laser channel for reflection light capture and the AOBS was set to allow 5-15% of laser light into the collection channel. Fluorescence was simultaneously captured by standard confocal imaging techniques.

mouse microglia = experiment: IL-1β release from LPS-primed mouse microglia (ELISA); format: cell-based; details: LPS-primed immortalized microglia
Procedure: For primary cultures, bone marrow-derived macrophages and microglia were isolated as described^42,43 and cultured in DMEM supplemented with L-glutamine, ciprofloxacin (Cellgro, Manassas, Va.) and 10% fetal calf serum (Hyclone, Logan, Utah) Immortalized macrophage and microglial cell lines were generated using J2 recombinant retrovirus (carrying v-myc and v-raf oncogenes)^44,45. Briefly, primary bone marrow cells were incubated in L929 conditioned medium for 3-4 days to induce macrophage differentiation. Cells were then infected with J2 recombinant retrovirus and maintained in culture until cells were growing in the absence of conditioned medium. Similarly, primary mixed glial cultures were cultured until fully confluent. After two consecutive infections with J2 retrovirus, cells were maintained in normal medium until growth of microglial cells in colonies was observed. The semi-adherent colonies of microglial cells were washed off and cultured in new flasks. […] Microglial cell lines form wild type (C57/BL6), Caspase-1^−/− and IL-IR^−/− mice as well as macrophage cell lines from wild type (C57BL6), NALP3 -, IPAF- and ASC-deficient mice were generated and used for experiments as indicated.
as §2
Cell culture supernatants were assayed for IL-1β and TNFα using ELISA kits from R&D Systems (Minneapolis, Minn.) according to the manufacturer's instructions. Nitric oxide was measured by Griess reaction of nitrites accumulated in the supernatants using chemicals from Sigma.

caspase-1 [2] = experiment: Caspase-1 cleavage/activation in mouse macrophages (Western blot p10); format: cell-based; details: for caspase-1 cleavage induced by the stimulus: LPS-primed bone marrow-derived macrophages, wild-type; for caspase-1 cleavage (p10) induced by the stimulus: LPS-primed wild type bone marrow-derived macrophages, Aβ and reverse Aβ 10 μM
Procedure: as §1
Cell culture supernatants were precipitated by adding an equal volume of methanol and 0.25 volumes of chloroform, vortexed and centrifuged at 20.000×g for 10 min. The upper phase was discarded and 500 μl of methanol was added to the interphase. This mixture was centrifuged at 20.000×g for 10 min and the protein pellet dried at 55° C., resuspended in Laemmli buffer and boiled at 99° C. for 5 min. Samples were separated by SDS-PAGE (15%) and transferred onto nitrocellulose membranes. As indicated, blots were incubated with rabbit polyclonal antibody to anti murine caspase-1 p10 (sc-514, Santa Cruz Biotechnology, Santa Cruz, Calif.), rabbit polyclonal anti human caspase-1 p10 (sc-515, Santa Cruz Biotechnology), rabbit polyclonal anti human cleaved IL-1β (Asp116) (Cell Signaling, Boston, Mass.) or rabbit polyclonal anti murine cathepsin B (R&D Systems, Minneapolis, Minn.).
Cell culture supernatants were precipitated by adding an equal volume of methanol and 0.25 volumes of chloroform, vortexed and centrifuged at 20,000×g for 10 min. The upper phase was discarded and 500 μl of methanol was added to the interphase. This mixture was centrifuged at 20,000×g for 10 min and the protein pellet dried at 55° C., resuspended in Laemmli buffer and boiled at 99° C. for 5 min Samples were separated by SDS-PAGE (15%) and transferred onto nitrocellulose membranes. Blots were incubated with rabbit polyclonal antibody to anti murine caspase-1 p10 (sc-514, Santa Cruz Biotechnology, Santa Cruz, Calif.).

THP-1 cells = experiment: Lysosomal rupturing in THP-1 cells, IL-1β release; format: cell-based, human; details: PMA-differentiated THP-1 cells
Procedure: Cell culture supernatants were assayed for IL-1β using ELISA kits from BD Biosciences (Franklin Lakes, NJ) according to the manufacturer's instructions. To measure intracellular IL-1β, cells were washed and subjected to three freeze thaw cycles in assay diluent. PMA-differentiated THP-1 cells were incubated with hypertonic DMEM medium containing 10% polyethylene glycol (PEG) 1000, 1.4 M sucrose, 20 mM Hepes (pH 7.2) and 5% FCS for […] at 37° C. Cells were subsequently washed and incubated in hypotonic DMEM medium [DMEM: H2O (3:2)] for 2 min to induce lysosomal rupturing. Cells were then incubated in serum free DMEM for additional 4 hours.

caspase-1 [3] = experiment: Caspase-1 activation in microglia (FLICA, confocal microscopy, flow cytometry); format: cell-based, mouse
Procedure: For assessment of microglia-induced neurotoxicity, CAD mouse neuronal cells^47 were seeded on poly-L-lysine coated glass cover slips and grown in F12/DMEM supplemented with ciprofloxacin (Cellgro, Manassas, Va.) and 10% fetal calf serum (Hyclone, Logan, Utah) for 24 h. Differentiation was induced by withdrawal of serum for 48 h Immortalized microglia from wildtype or caspase-1^−/− mice were added in serum free medium to obtain mixed neuronal/microglial cultures and immediately stimulated. 72 h after stimulation with Aβ or media, cells were fixed, stained for the neuron-specific marker TuJ-1 and microglial marker CD11b, and imaged by confocal microscopy (Leica SP2 AOBS). Caspase-1 activity in microglial cells was assessed using the caspase-1 FLICA™ kit (Immunochemistry Technologies, Bloomington, Minn.) according to the manufacturer's instructions.
For evaluation of lysosomal damage, cells were incubated with LysoTracker green (1:2000) for 30 min and stimulated as described. Lysosomal damage was defined as loss of LysoTracker fluorescence as assessed by flow cytometry. All flow cytometry experiments were performed on an LSRII cytometer (BD Biosciences), data were acquired by DIVA software (BD Biosciences) and analyzed with FlowJo software (Tree Star Inc., Ashland, Oreg.).
IL-1β maturation is controlled by caspase-1 after assembly of the inflammasome, a multi protein complex that activates pro-caspase-1. In order to test whether Aβ activates caspase-1, we measured levels of activated caspase-1 using a fluorescent cell permeable probe (FAM-YVAD-Fmk), which covalently binds only to activated caspase-1 (Fluorescent labeled Inhibitors of Caspases, FLICA)^14. […] Similar results were obtained in primary microglial cultures (FIG. 15c).

ASC = experiment: ASC-CFP microglia cell line, ASC clustering; format: cell-based, mouse; details: LPS-primed ASC-CFP microglia, 3 h after stimulation
Description: Human ASC was fused to CFP using BgIII/BamHI in pEF-BOS-CFP. Subsequently, ASC-CFP was cloned using XhoI and NotI into a modified form of FUGW (FUGW-XN). FUGW-XN was modified by replacing GFP with a novel cut site that created XhoI and NotI compatible ends upon Esp3I digestion.
Lentivirus was produced in 293T cells transfected with the FUGW based expression vector coding for ASC-CFP, lentiviral packaging plasmid containing gag, pol and rev genes (pCMV-dR8.91) and envelope plasmid (VSV-G) using TransIT-LT1 transfection reagent (Minis Bio, MIR 2300/5/6) as previously described^46. One day after transfection, medium was replaced and after one additional day of culture supernatants containing the lentivirus was removed, filtered and used to infect immortalized microglia cells.
For experiments, ASC-CFP microglial cells were seeded in duplicate into confocal dishes, stimulated as indicated. A647-labeled cholera toxin subunit B (1:1000) was added to stain cellular membranes. Cells were subsequently imaged using confocal microscopy (Leica SP2 AOBS). Cells were fixed and 5 random fields were imaged in duplicate for quantification.
First, we stably transduced microglial cell cultures with a fusion protein of ASC and cyan fluorescent protein (CFP). ASC forms large oligomers upon its activation, leading to visible changes in the cytoplasmic fluorescence pattern of ASC-CFP. […]

Compound: COC(=O)[C@H](CC(C)C)NC(=O)[C@@H](N)CC(C)C [Leu-Leu-OMe, L-leucyl-L-leucine methyl ester]
IL-1β produced in response to the stimulus (mouse macrophages; LPS-primed macrophages from wild-type mice): large quantities of IL-1β
lysosomal rupture / loss of lysosomes caused by the stimulus ([1]; mouse macrophages, acridine orange, DQ ovalbumin, dextran): considerable swelling and rupture of lysosomes

Compound: CO/C1=C\C(C)=C\[C@@H](C)[C@@H](O)[C@@H](C)C/C(C)=C/C=C/[C@H](OC)[C@@H]([C@@H](C)[C@@H](O)[C@H](C)[C@@]2(O)C[C@@H](O)[C@H](C)[C@@H](C(C)C)O2)OC1=O [bafilomycin A]
ATP-induced IL-1β release, inhibitor present (mouse macrophages; LPS-primed B6-MCLs, 6 h): no effect
silica-mediated IL-1β release, inhibitor present (mouse macrophages; LPS-primed B6-MCLs, 6 h): completely blocked
release of IL-1b in response to Leu-Leu-OMe, inhibitor present (mouse macrophages; LPS-primed bone marrow-derived macrophages, bafilomycin 250 nM): also inhibited
formation of acidic lysosomes (LysoSensor Green) ([1]; mouse macrophages): blocked
Leu-Leu-OMe-induced lysosomal morphology change and rupture, inhibitor present ([1]; mouse macrophages (data not shown)): much less altered lysosomal morphology and rupture
appearance of fluorescent DQ ovalbumin (lysosomal proteolytic function) ([1]; mouse macrophages, bafilomycin 250 nM): suppressed

Compound: CC(C)CC(=O)N[C@H](C(=O)N[C@H](C(=O)N[C@@H](CC(C)C)[C@@H](O)CC(=O)N[C@@H](C)C(=O)N[C@@H](CC(C)C)[C@@H](O)CC(=O)O)C(C)C)C(C)C [pepstatin A] (Isovaleryl-VV[Sta]A[Sta]-OH)
Aβ-induced IL-1β release in presence of cathepsin inhibitor (mouse microglia): no effect; also recorded: no attenuation

Compound: O=C(NC(Cc1ccccc1)C(=O)NC(Cc1ccccc1)C(=O)CF)OCc1ccccc1 (stereo not drawn) [Z-FF-FMK] (Cbz-Phe-Phe-CH2F; configuration not given here)
Aβ-induced IL-1β release in presence of cathepsin inhibitor (mouse microglia): no effect; also recorded: no attenuation

Compound: Nc1ncnc2c1ncn2[C@@H]1O[C@H](COP(=O)(O)OP(=O)(O)OP(=O)(O)O)[C@@H](O)[C@H]1O [ATP]
caspase-1 cleavage induced by the stimulus (caspase-1 [2]): induced in a dose dependent way
caspase-1 cleavage (p10) induced by the stimulus (caspase-1 [2]): induced caspase-1 cleavage (p10)
IL-1β release induced by the stimulus (THP-1 cells; 4 h): increased IL-1β release
caspase-1 positive microglial cells after stimulation (caspase-1 [3]; immortalized microglia, Aβ 10 μM, revAβ 10 μM, ATP 1 mM, 4 h): robust increase
formation of fluorescent ASC-CFP clusters (ASC): also observed

Compound: poly(deoxyadenylic-thymidylic) acid sodium salt [poly(dA:dT)]
caspase-1 cleavage induced by the stimulus (caspase-1 [2]): induced in a dose dependent way
caspase-1 cleavage (p10) induced by the stimulus (caspase-1 [2]): induced caspase-1 cleavage (p10)

caspase-1 activation induced by ATP, inhibitor present (caspase-1 [3]; microglia, FLICA, inhibitor 20 μM): not affected; also recorded: no effect
Compound: CCCNC(=O)[C@H]1O[C@@H]1C(=O)N[C@H](C(=O)N1CCC[C@H]1C(=O)OC)[C@@H](C)CC [CA-074-Me]
caspase-1 activation after silica crystal treatment, inhibitor present (caspase-1 [2]; LPS-primed B6-MCLs, CA-074-Me 10 μM (FIG. 5a)): much less caspase-1 activation
caspase-1 cleavage after crystal-independent disruption of lysosomes, inhibitor present (caspase-1 [2]; mouse macrophages, hypertonic then hypotonic media, CA-074-Me 10 or 2 μM): partially inhibited
IL-1β release after lysosomal rupture, inhibitor present (THP-1 cells): clearly reduced
Aβ-induced IL-1β release in presence of cathepsin inhibitor (mouse microglia): dose-dependently inhibited
caspase-1 activation after Aβ stimulation, inhibitor present (caspase-1 [3]; microglia, FLICA, flow cytometry): strongly and dose-dependently inhibited; also recorded: dose-dependently reduced
